Key:
[1] = tested on: Mycobacterium smegmatis ATCC 607; assay: Antibacterial activity by the agar cylinder plate method, Mycobacterium smegmatis ATCC607; type: cell-based; details: copper-containing compound, standard bleomycin A2 = 1,000 mcg potency/mg
Text: (§1) (1) Antibacterial activity against Mycobacterium smegmatis ATCC607 and Bacillus subtilis
(§2) The above activity ws determined by the agar cylinder plate method using the above microorganisms.

[2] = tested on: Bacillus subtilis; assay: Antibacterial activity by the agar cylinder plate method, Bacillus subtilis; type: cell-based; details: copper-containing compound, standard bleomycin A2 = 1,000 mcg potency/mg
Text: as §1, §2

[3] = tested on: ICR mice; assay: Pulmonary toxicity (fibrosis of the lung) in mice; details: for Incidence: Number of mice with pulmonary fibrosis/Number of mice in the treatment group / Incidence (%) of pulmonary fibrosis / Grade: Total score for pulmonary fibrosis/Total specimens / Grade of pulmonary fibrosis (total score divided by total number of specimens): 5 mg/kg i.p. once daily for 10 days; for Incidence: Number of mice with pulmonary fibrosis/Number of mice in the treatment group / Incidence (%) of pulmonary fibrosis: autopsy after 5 weeks of observation; for Incidence: Number of mice with pulmonary fibrosis/Number of mice in the treatment group: count; for Incidence (%) of pulmonary fibrosis: percentage in parentheses; for Grade: Total score for pulmonary fibrosis/Total specimens / Grade of pulmonary fibrosis (total score divided by total number of specimens): autopsy after 5 weeks, scores 0, 1, 2, 4, 6 points; for Grade: Total score for pulmonary fibrosis/Total specimens: fraction; for Grade of pulmonary fibrosis (total score divided by total number of specimens): value in parentheses; for Grade ratio: grade of the test compound to that of bleomycin complex; for Incidence ratio: incidence of the test compound to that of bleomycin complex
Procedure: ICR mice (male, 15-week-old) were used in groups of 10 each. The dose of each test compound was 5 mg/kg injected intraperitoneally once daily for 10 consecutive days. After the administration of the compound was completed, the animals were reared for 5 weeks for observation. Then, the animals were killed and autopsied so that the incidence and grade of pulmonary fibrosis were examined.
The incidence of pulmonary fibrosis was expressed as the number of mice developing pulmonary fibrosis in the group of mice administered the test compound. The grade of pulmonary fibrosis was expressed as the total score for pulmonary fibrosis divided by the total number of specimens.
1 point: Accumulation of exudate in the alveoli, and fibrosis-like changes seen in the alveolar septum.
2 points: Fibrosis seen at several sites.
4 points: Sporadic fibrosis.
6 points: Extensive fibrosis (fibrosis seen in more than 170 of the total region).
The ratio in the table represents the ratio of the incidence of the test compound to that of bleomycin complex, or the ratio of the grade of the test compound to that of bleomycin complex.

SMILES	Antibacterial titer of copper-compound [1]	Antibacterial titer of copper-compound [2]	Incidence: Number of mice with pulmonary fibrosis/Number of mice in the treatment group [3]	Incidence (%) of pulmonary fibrosis [3]	Grade: Total score for pulmonary fibrosis/Total specimens [3]	Grade of pulmonary fibrosis (total score divided by total number of specimens) [3]	Grade ratio [3]	Incidence ratio [3]	Grade of pulmonary fibrosis (total score divided by total number of specimens) ([3]; the values are: mean fibrosis score per specimen)
Cc1c(N)nc(C(CC(N)=O)NCC(N)C(N)=O)nc1C(=O)NC(C(=O)NC(C)C(O)C(C)C(=O)NC(C(=O)NCCc1nc(-c2nc(C(=O)NCCCN(CCCCN(Cc3ccccc3)Cc3ccccc3)Cc3ccccc3)cs2)cs1)C(C)O)C(OC1OC(CO)C(O)C(O)C1OC1OC(CO)C(O)C(OC(N)=O)C1O)c1cnc[nH]1 (stereo not shown) [Compound 1, 3-[N-benzyl-N-(4'-dibenzylaminobutyl)amino]propylaminobleomycin]	17360 mcg potency/mg	400 mcg potency/mg	0/10	0%	0/30	0	0.00	0.00	–
Cc1c(N)nc(C(CC(N)=O)NCC(N)C(N)=O)nc1C(=O)NC(C(=O)NC(C)C(O)C(C)C(=O)NC(C(=O)NCCc1nc(-c2nc(C(=O)NCCCN(CCCCN(Cc3ccc(Cl)cc3)Cc3ccc(Cl)cc3)Cc3ccc(Cl)cc3)cs2)cs1)C(C)O)C(OC1OC(CO)C(O)C(O)C1OC1OC(CO)C(O)C(OC(N)=O)C1O)c1cnc[nH]1 (stereo not shown) [Compound 2, 3-{N--p-chlorobenzyl-N--[4'-bis(p-chlorobenzyl)aminobutyl]amino}propylaminobleomycin]	613 mcg potency/mg	129 mcg potency/mg	0/10	0%	0/30	0	0.00	0.00	–
Cc1c(N)nc(C(CC(N)=O)NCC(N)C(N)=O)nc1C(=O)NC(C(=O)NC(C)C(O)C(C)C(=O)NC(C(=O)NCCc1nc(-c2nc(C(=O)NCCCN(CCCCN(Cc3ccc(Cl)c(Cl)c3)Cc3ccc(Cl)c(Cl)c3)Cc3ccc(Cl)c(Cl)c3)cs2)cs1)C(C)O)C(OC1OC(CO)C(O)C(O)C1OC1OC(CO)C(O)C(OC(N)=O)C1O)c1cnc[nH]1 (stereo not shown) [Compound 3, 3-{N--m,p-dichlorobenzyl-N--[4'-bis(m,p-dichlorobenzyl)aminobutyl]amino}propylaminobleomycin]	217 mcg potency/mg	43 mcg potency/mg	0/10	0%	0/30	0	0.00	0.00	–
COc1ccc(CN(CCCCN(Cc2ccc(OC)cc2)Cc2ccc(OC)cc2)CCCNC(=O)c2csc(-c3csc(CCNC(=O)C(NC(=O)C(C)C(O)C(C)NC(=O)C(NC(=O)c4nc(C(CC(N)=O)NCC(N)C(N)=O)nc(N)c4C)C(OC4OC(CO)C(O)C(O)C4OC4OC(CO)C(O)C(OC(N)=O)C4O)c4cnc[nH]4)C(C)O)n3)n2)cc1 (stereo not shown) [Compound 4, 3-{N--p-methoxybenzyl-N--[4'-bis(p-methoxybenzyl)aminobutyl]amino}propylaminobleomycin]	11109 mcg potency/mg	197 mcg potency/mg	0/10	0%	0/30	0	0.00	0.00	–
Cc1ccc(CN(CCCCN(Cc2ccc(C)cc2)Cc2ccc(C)cc2)CCCNC(=O)c2csc(-c3csc(CCNC(=O)C(NC(=O)C(C)C(O)C(C)NC(=O)C(NC(=O)c4nc(C(CC(N)=O)NCC(N)C(N)=O)nc(N)c4C)C(OC4OC(CO)C(O)C(O)C4OC4OC(CO)C(O)C(OC(N)=O)C4O)c4cnc[nH]4)C(C)O)n3)n2)cc1 (stereo not shown) [Compound 5, 3-{N--p-methylbenzyl-N--[4'-bis(p-methylbenzyl)aminobutyl]amino}propylaminobleomycin]	4560 mcg potency/mg	203 mcg potency/mg	0/10	0%	0/30	0	0.00	0.00	–
Cc1c(N)nc(C(CC(N)=O)NCC(N)C(N)=O)nc1C(=O)NC(C(=O)NC(C)C(O)C(C)C(=O)NC(C(=O)NCCc1nc(-c2nc(C(=O)NCCCN(CCCCN(CC3CCCCCCC3)CC3CCCCCCC3)CC3CCCCCCC3)cs2)cs1)C(C)O)C(OC1OC(CO)C(O)C(O)C1OC1OC(CO)C(O)C(OC(N)=O)C1O)c1cnc[nH]1 (stereo not shown) [Compound 6, 3-{N--cyclooctylmethyl-N--[4'-bis(cyclooctylmethyl)aminobutyl]amino}propylaminobleomycin]	530 mcg potency/mg	61 mcg potency/mg	0/10	0%	0/30	0	0.00	0.00	–
CCCCCCCCCCN(CCCCCCCCCC)CCCCN(CCCCCCCCCC)CCCNC(=O)c1csc(-c2csc(CCNC(=O)C(NC(=O)C(C)C(O)C(C)NC(=O)C(NC(=O)c3nc(C(CC(N)=O)NCC(N)C(N)=O)nc(N)c3C)C(OC3OC(CO)C(O)C(O)C3OC3OC(CO)C(O)C(OC(N)=O)C3O)c3cnc[nH]3)C(C)O)n2)n1 (stereo not shown) [Compound 8, 3-{N--n-decyl-N--[4'-bis(n-decyl)-aminobutyl]amino}propylaminobleomycin]	295 mcg potency/mg	75 mcg potency/mg	0/10	0%	0/30	0	0.00	0.00	–
Cc1c(N)nc(C(CC(N)=O)NCC(N)C(N)=O)nc1C(=O)NC(C(=O)NC(C)C(O)C(C)C(=O)NC(C(=O)NCCc1nc(-c2nc(C(=O)NCCC[N+](C)(C)CCCCN(Cc3ccccc3)Cc3ccccc3)cs2)cs1)C(C)O)C(OC1OC(CO)C(O)C(O)C1OC1OC(CO)C(O)C(OC(N)=O)C1O)c1cnc[nH]1 (stereo not shown) [Compound 11, 3-[N,N-dimethyl-N-(4'-dibenzyl-aminobutyl)amino]propylaminobleomycin]	20160 mcg potency/mg	2528 mcg potency/mg	–	–	–	–	–	–	–
Cc1c(N)nc(C(CC(N)=O)NCC(N)C(N)=O)nc1C(=O)NC(C(=O)NC(C)C(O)C(C)C(=O)NC(C(=O)NCCc1nc(-c2nc(C(=O)NCCCNCCCCN)cs2)cs1)C(C)O)C(OC1OC(CO)C(O)C(O)C1OC1OC(CO)C(O)C(OC(N)=O)C1O)c1c[nH]cn1 (stereo not shown) [Compound A5, 3-(4'-aminobutylamino)propylaminobleomycin, reference compound]	–	–	5/10	50%	5/30	–	0.29	0.71	0.17
